Data taken from ChEMBL document CHEMBL1201862, “PubChem BioAssay data set” (2004).
The source made the active and inactive calls.

What was measured:
[1] = EDANS-DABCYL fluorescence interference, concentration series, dose response, artefact control for kallikrein-7 zymogen activator project, biochemical, fluorescence intensity, triplicate (AID 720493)
Kallikrein-7 = Kallikrein-7 (Homo sapiens, UniProt P49862); assay: Fluorescence Intensity-based biochemical primary high throughput dose response assay to identify activators of kallikrein-7 (K7) zymogen.
Chain of Kallikrein-7 (P49862 whole entry): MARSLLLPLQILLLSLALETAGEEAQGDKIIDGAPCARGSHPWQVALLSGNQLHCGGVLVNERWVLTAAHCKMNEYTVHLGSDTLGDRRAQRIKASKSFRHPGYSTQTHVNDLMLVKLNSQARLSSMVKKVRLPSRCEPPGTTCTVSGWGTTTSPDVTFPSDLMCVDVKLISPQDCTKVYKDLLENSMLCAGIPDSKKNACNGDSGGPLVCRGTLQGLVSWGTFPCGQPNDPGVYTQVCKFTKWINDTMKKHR

[2] = inhibitors of firefly luciferase expression or activity, dose response, H4 neuroglioma cells, luminescence (AID 1990); type: functional, cell-based
[3] = biological target: Heat shock protein HSP 90-alpha (Homo sapiens, UniProt P07900); type: functional, organism-based
[4] = HEK293T cytotoxicity, dose response, cytotoxicity control for miR-122 modulator project, cell-based, activator set, cherry-pick (AID 720690); type: functional;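 note: HEK293T human cells scored for general mammalian cytotoxicity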
cells = type: functional, cell-based
INS1 = assay: beta cell apoptosis inhibitors, cytokine rescue, dose response, luminescence, retest (AID 449756); type: functional, cell-based; conditions: Rattus norvegicus;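 note: cell death triggered by IL-1 beta plus TNF-alpha plus IFN-gamma mixture; protective hits raise ATP signal compared with cytokine alone wells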
[5] = tested on: Streptococcus sp. 'group A'; assay: growth inhibition of control SK(-) GAS strain, dose response, counter-screen for streptokinase expression inhibitor project, luminescence, kanamycin, BacTiterGlo, confirmation (AID 1900); type: functional, organism-based
HEK293 = assay: inhibitors of LMP1-driven NF-kB reporter, dose response, cell-based, HEK293, luciferase, cherry-pick (AID 588343); type: functional; conditions: Homo sapiens
BJ [6] = assay: cytotoxicity toward Ras-transformed BJeLR fibroblasts, dose response, cell-based, alamar blue fluorescence, cherrypicked samples (AID 2631); type: functional; conditions: Homo sapiens;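 note: confirmatory dose-response assay in RAS-dependent BJ fibroblasts engineered with TERT, LT and ST, with cytotoxicity read by fluorescence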
Streptokinase A = biological target: T1, Streptokinase A (Streptococcus pyogenes serotype M1, UniProt P10520); assay: S. pyogenes streptokinase expression inhibitors, potency, dose response, plasminogen activation absorbance, OD405 (AID 1914); type: functional, Streptococcus pyogenes M1 GAS;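 note: secreted streptokinase activity via plasminogen activation per viability signal from cell pellet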
T1 sequence (P10520 whole entry): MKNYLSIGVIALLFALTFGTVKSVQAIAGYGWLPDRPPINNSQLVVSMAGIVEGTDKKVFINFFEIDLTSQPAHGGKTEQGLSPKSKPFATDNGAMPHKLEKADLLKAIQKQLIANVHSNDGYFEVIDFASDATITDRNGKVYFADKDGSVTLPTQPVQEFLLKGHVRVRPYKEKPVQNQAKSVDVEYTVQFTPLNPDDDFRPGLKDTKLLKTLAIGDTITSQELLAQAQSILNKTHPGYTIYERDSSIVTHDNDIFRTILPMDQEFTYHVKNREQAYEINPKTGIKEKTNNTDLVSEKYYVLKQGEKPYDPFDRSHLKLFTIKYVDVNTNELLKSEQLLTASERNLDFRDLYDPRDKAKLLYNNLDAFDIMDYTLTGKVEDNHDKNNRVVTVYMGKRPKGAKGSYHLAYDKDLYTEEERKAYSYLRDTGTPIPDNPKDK

BJ [7] = assay: cytotoxicity toward BJ-TERT fibroblasts, dose response, cell-based, RAS-independent, luminescence (AID 1933); type: functional; conditions: Homo sapiens
[8] = inhibitors of SNCA 5'UTR-driven reporter translation, confirmation, H4 neuroglioma cells, luminescence (AID 1988); type: functional, cell-based
Streptococcus = assay: Group A Streptococcus viability loss, dose response, counter-screen for streptokinase expression inhibitor project, luminescence, BacTiterGlo (AID 1915); type: functional, organism-based;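 note: potency for reduction of bacterial viability or growth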
[9] = luciferase reporter signal reduction – luminescence, H4-C neuroglioblastoma cells, dose response (AID 2458); type: functional, cell-based;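 note: H4 neuroglioblastoma cells stably carrying a luciferase reporter gene fusion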
BJ [10] = assay: cells; type: functional, cell-based; conditions: Homo sapiens
[11] = HEK293T cytotoxicity, dose response, cytotoxicity control for miR-122 modulator project, cell-based, inhibitor set, cherry-pick, set 2 (AID 720697); type: functional
[12] = cytotoxicity toward DRD oncogenic fibroblasts, dose response, cell-based, non-viral oncogenic, luminescence (AID 1934); type: functional; conditions: Homo sapiens
[13] = Luminescence Cell-Based Dose Response HTS to Identify Inhibitors of 5'UTR Stem-Loop Driven Prion Protein mRNA Translation in H4 Neuroglioblastoma Cells. [Related pubchem assays: 1827 (Project Summary), 1813 (Primary HTS)]; type: functional
BJ [14] = assay: cytotoxicity toward BJ-TERT-LT-ST fibroblasts, dose response, cell-based, RAS-independent, luminescence (AID 1935); type: functional; conditions: Homo sapiens;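 note: BJ fibroblasts immortalized with TERT plus LT and ST oncogenes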
[15] = miR-122 activators in hepatoma reporter cells, dose response, cell-based, Huh7 psiCHECK-miR122, Renilla luciferase, cherry-picked (AID 651956); type: functional;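 note: huh7 hepatoma cells stably carrying a psiCHECK-2 miR-122 sensor plasmid; renilla luciferase signal reporting endogenous miR-122 activity after 48 h compound exposure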
[16] = inhibitors of SNCA 5'UTR-driven translation, confirmation, luminescence, H4 neuroglioblastoma cells, dose confirmation (AID 2454); type: functional, cell-based;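 note: H4 neuroglioblastoma cells carrying an alpha-synuclein 5'UTR luciferase reporter; potency for inhibition of the luciferase signal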
[17] = ADAM10 protease inhibitors, dose response, selectivity assay for ADAM17 exosite inhibitor project, biochemical, FRET peptide substrate, recombinant human ADAM10 (AID 743259);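 note: ADAM10 enzyme cleaving a FRET peptide substrate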
[18] = biological target: Disintegrin and metalloproteinase domain-containing protein 17 (Homo sapiens, UniProt P78536); assay: exosite inhibitors of ADAM17, dose response, biochemical (AID 743260)
Chain of Disintegrin and metalloproteinase domain-containing protein 17 (P78536 whole entry, the tested form may be a part): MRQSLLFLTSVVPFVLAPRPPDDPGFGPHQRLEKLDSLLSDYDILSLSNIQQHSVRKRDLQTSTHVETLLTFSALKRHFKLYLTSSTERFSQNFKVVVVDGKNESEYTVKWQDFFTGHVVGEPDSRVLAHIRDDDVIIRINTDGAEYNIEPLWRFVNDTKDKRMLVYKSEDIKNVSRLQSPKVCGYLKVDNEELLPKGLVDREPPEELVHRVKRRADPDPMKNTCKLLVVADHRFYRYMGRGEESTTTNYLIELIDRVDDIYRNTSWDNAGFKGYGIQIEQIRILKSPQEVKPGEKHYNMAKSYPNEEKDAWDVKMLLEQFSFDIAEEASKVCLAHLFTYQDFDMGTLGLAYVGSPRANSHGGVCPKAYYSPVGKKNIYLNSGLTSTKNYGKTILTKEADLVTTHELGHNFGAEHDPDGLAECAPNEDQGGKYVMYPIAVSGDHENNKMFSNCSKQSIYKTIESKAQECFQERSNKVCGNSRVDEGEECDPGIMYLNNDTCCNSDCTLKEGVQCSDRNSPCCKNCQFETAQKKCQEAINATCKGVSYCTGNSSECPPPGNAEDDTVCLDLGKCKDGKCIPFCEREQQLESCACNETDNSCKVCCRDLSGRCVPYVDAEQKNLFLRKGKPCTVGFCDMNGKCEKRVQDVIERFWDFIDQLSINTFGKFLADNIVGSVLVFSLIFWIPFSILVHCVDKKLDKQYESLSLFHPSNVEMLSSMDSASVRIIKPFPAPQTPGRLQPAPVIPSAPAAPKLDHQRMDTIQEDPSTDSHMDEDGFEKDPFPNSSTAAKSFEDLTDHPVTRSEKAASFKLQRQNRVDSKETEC

[19] = biological target: 1-phosphatidylinositol 4,5-bisphosphate phosphodiesterase beta-3 (Homo sapiens, UniProt Q01970); assay: Fluorescence-based biochemical high throughput dose response assay to identify inhibitors of phospholipase C isozymes (PLC-B3).
Chain of 1-phosphatidylinositol 4,5-bisphosphate phosphodiesterase beta-3 (Q01970 whole entry): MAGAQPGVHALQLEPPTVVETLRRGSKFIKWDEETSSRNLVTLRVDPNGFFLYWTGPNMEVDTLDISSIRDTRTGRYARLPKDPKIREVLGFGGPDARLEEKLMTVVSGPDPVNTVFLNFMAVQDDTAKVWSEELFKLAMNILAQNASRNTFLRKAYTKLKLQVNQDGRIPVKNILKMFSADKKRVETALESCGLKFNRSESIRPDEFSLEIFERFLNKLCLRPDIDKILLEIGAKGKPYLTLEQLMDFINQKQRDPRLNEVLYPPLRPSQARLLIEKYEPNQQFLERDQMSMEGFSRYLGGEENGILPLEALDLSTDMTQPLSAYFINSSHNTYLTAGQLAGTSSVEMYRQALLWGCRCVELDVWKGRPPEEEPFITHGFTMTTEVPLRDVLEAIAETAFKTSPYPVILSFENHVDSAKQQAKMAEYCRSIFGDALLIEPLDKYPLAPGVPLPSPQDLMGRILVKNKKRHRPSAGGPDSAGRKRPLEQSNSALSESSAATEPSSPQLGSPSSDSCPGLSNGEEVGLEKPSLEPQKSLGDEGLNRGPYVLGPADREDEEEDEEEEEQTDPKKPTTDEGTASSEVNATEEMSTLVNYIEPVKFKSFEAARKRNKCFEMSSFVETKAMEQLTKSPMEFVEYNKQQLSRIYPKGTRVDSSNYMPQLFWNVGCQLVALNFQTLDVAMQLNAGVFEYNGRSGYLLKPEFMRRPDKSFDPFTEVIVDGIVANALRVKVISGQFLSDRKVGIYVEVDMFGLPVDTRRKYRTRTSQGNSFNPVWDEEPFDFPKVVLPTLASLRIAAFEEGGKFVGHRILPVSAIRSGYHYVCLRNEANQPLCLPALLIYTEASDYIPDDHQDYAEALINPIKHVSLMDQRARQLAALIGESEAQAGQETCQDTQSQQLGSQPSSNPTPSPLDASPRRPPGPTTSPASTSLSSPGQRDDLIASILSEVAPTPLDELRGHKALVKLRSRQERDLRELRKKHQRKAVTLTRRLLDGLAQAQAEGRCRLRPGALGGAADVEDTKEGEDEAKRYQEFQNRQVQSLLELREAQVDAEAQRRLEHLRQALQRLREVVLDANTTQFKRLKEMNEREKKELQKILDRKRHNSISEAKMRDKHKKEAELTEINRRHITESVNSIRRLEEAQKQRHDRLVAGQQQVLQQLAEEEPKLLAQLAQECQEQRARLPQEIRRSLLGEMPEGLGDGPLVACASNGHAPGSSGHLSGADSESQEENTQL

[20] = biological target: 1-phosphatidylinositol 4,5-bisphosphate phosphodiesterase gamma-1 (Homo sapiens, UniProt P19174); assay: Counterscreen for inhibitors of phospholipase C isozymes (PLC-B3): Fluorescence-based biochemical high throughput dose response assay to identify inhibitors of phospholipase C isozymes (PLC-gamma1).
Chain of 1-phosphatidylinositol 4,5-bisphosphate phosphodiesterase gamma-1 (P19174 whole entry): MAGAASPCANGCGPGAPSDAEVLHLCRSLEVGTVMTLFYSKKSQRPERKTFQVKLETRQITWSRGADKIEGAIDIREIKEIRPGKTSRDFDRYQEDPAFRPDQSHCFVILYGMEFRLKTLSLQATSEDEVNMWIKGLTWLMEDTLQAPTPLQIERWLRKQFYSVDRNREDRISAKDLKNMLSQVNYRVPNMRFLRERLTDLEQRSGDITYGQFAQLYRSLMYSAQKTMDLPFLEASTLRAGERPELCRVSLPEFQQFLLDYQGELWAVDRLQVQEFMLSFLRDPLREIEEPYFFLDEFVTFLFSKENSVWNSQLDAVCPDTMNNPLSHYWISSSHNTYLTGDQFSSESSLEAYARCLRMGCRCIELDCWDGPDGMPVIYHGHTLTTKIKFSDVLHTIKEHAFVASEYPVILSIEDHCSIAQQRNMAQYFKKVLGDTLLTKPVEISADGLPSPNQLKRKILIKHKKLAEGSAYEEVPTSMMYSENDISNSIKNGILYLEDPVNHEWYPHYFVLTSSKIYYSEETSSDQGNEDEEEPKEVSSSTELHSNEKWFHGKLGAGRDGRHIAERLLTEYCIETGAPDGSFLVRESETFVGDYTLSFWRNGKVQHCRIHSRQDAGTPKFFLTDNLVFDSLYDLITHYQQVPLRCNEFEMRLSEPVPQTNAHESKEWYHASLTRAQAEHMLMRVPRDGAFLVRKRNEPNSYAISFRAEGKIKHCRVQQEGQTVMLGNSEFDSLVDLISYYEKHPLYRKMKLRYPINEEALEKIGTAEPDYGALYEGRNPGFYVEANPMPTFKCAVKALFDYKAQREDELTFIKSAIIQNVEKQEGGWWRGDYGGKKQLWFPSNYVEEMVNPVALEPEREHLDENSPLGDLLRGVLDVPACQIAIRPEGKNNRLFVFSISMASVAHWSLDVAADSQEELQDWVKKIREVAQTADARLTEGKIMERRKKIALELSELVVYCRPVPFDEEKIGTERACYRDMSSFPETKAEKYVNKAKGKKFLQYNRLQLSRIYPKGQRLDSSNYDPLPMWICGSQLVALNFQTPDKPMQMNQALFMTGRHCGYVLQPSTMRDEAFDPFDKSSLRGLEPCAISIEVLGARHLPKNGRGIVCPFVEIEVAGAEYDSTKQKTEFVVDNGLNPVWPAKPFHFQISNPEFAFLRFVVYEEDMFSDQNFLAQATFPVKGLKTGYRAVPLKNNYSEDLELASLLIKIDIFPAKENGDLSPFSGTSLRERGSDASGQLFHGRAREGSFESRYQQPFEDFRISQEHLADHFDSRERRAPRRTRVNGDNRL

Mu-type opioid receptor = Mu-type opioid receptor (Homo sapiens, UniProt P35372); assay: Late-stage results from the probe development effort to identify antagonists of OPRK1: luminescence-based cell-based dose response OPRM1 counterscreen.; type: functional
Chain of Mu-type opioid receptor (P35372 whole entry): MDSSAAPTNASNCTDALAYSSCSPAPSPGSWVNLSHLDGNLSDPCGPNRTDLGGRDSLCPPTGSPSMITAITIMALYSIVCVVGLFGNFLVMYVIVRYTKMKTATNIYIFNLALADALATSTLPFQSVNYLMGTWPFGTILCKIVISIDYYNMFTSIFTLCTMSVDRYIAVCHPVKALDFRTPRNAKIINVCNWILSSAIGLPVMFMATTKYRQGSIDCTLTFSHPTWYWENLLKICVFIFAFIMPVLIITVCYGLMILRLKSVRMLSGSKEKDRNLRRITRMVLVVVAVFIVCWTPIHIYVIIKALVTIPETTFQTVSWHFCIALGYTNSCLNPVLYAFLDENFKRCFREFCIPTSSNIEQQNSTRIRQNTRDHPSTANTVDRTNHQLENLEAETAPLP

[21] = biological target: Delta-type opioid receptor (Homo sapiens, UniProt P41143); assay: Late-stage results from the probe development effort to identify antagonists of OPRK1: fluorescence-based cell-based dose response OPRD1 counterscreen.; type: functional
Chain of Delta-type opioid receptor (P41143 whole entry): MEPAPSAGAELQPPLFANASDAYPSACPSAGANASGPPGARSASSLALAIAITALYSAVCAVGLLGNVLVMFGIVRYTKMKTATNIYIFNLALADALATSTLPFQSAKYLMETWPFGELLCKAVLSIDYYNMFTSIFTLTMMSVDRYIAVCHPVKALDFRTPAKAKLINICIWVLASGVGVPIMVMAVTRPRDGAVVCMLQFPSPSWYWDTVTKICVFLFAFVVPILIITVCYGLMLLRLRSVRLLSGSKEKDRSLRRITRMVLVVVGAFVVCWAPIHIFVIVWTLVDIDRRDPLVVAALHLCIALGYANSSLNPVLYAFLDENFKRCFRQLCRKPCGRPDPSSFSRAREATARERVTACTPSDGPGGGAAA

[22] = cytotoxicity in HeLa cells, dose response, cytotoxicity control, cell-based, plate reader, dry powder (AID 651946); type: functional

For CCC1CCCCN1Cc1c(O)ccc2c(=O)c(-c3ccccc3)coc12 (centres undefined), the EC50 [1] was > 7.72 µM (active) and the EC50 (Kallikrein-7) was > 69.5 µM (inactive).

In the case of Cc1sc2ncnc(N/N=C/c3ccccc3O)c2c1C, the EC50 [2] is reported as 7.52 µM (active), the AC50 [3] is reported as 2.1 µM (active) and the AC50 [4] is reported as 3.28 µM (active). The EC50 (cells) was 1.22 µM (active), the AC50 (INS1) was 0.642 µM (active) and the EC50 [5] was 1.97 µM (active). The AC50 (HEK293) was 9.16 µM (active), the EC50 (BJ [6]) was 4.53 µM (active) and the EC50 (Streptokinase A) was 8.21 µM (active). For the same molecule, the EC50 (BJ [7]) was 5.5 µM (inconclusive), the EC50 [8] was < 0.1 µM (active) and the EC50 (Streptococcus) was 6.53 µM (active). For the same molecule, the EC50 [9] was 1.17 µM (active), the EC50 (BJ [10]) was 4.2 µM (active) and the AC50 [11] was 1.19 µM (active). The EC50 [12] was 3.5 µM (active), the EC50 [13] was 20.5 µM (active) and the EC50 (BJ [14]) was 5.79 µM (inconclusive). For the same molecule, the AC50 [15] was 8.43 µM (active) and the EC50 [16] was 0.993 µM (active).

For COc1ccccc1CNS(=O)(=O)c1cc(-c2cc(C)no2)ccc1C(C)C, the IC50 [17] was > 69.5 µM (inactive) and the IC50 [18] was > 69.5 µM (inactive).

With O=C(N/N=C/c1ccc(OC(=O)c2ccccc2)cc1)c1cccc(O)c1 the IC50 [19] was > 122 µM (inactive) and the IC50 [20] was > 122 µM (inactive).

With COC(=O)c1cc(Br)cnc1N1CCC(NC2CCCCC2OC)CC1 (centres undefined) the IC50 (Mu-type opioid receptor) was 12 µM (inactive) and the IC50 [21] was > 50 µM (inactive).

With c1ccc(-c2nnc(SC(c3ccccc3)c3ccccc3)o2)cc1 the AC50 [22] was > 52 µM (inactive).
